The record followed here is US7205308B2, “Trisubstituted 7-aminopyrazolopyrimidines as cyclin dependent kinase inhibitors” (Schering Corporation, priority 2002, dated 2007).

Molecules are shown by their SMILES. pIC50: −log10 of the molar value. “And” between values parts separate entries of the source, which are not always exact repeats. Equal values may be shown once.

One data set concerns the target T1, Cyclin E/CDK2 (Homo sapiens, UniProt P24941).
T1 construct: The expressed protein was approximately 34 kDa in size; made in house; host or cells: SF9 insect cells (baculovirus co-infection)
The experiment in a line: Cyclin E/CDK2 in vitro kinase assay (SPA, 33P-ATP, biotinylated Histone H1 peptide). To be noted: recombinant cyclin E/CDK2 from SF9 cells; 8 point serial dilutions in duplicate; 1 hour at room temperature. Type of data set: biochemical.

With `CS(=O)(=O)c1ccc(Nc2cc(-c3ccccc3)nc3c(C4CC4)cnn23)cc1`, the melting point (as a rule, the temperature, or range, at which the solid turns liquid) lay within 210 to 211 °C.
On the same count and under the same terms, as for `CC(C)c1cnn2c(Nc3ccc(S(C)(=O)=O)cc3)cc(-c3ccccc3)nc12`, the figure is 213 to 216 °C.
Molecule `CS(=O)(=O)c1ccc(Nc2cc(-c3ccc(Cl)cc3)nc3c(Br)cnn23)cc1` yielded a melting point of 249 to 253 °C.
`CCc1cnn2c(Nc3ccc(S(C)(=O)=O)cc3)cc(-c3ccccc3)nc12` gave a melting point of 192 to 194 °C.
In turn, `CS(=O)(=O)c1ccc(Nc2cc(-c3ccccc3)nc3c(Br)cnn23)cc1` yielded a melting point of 202 to 204 °C.
For the molecule `O=S(=O)(O)c1cccc(Nc2cc(-c3ccccc3)nc3c(Br)cnn23)c1`, the melting point was in the range of 206 to 208 °C.
Consider `O=S(=O)(O)c1ccc(Nc2cc(-c3ccccc3F)nc3c(Br)cnn23)cc1`, for which the melting point is greater than 250 °C.
`CCc1cnn2c(Nc3ccc(S(=O)(=O)O)cc3)cc(-c3ccccc3)nc12` showed a melting point greater than 250 °C.
On the same count and under the same terms, the same measure for `CN(C)S(=O)(=O)c1ccc(Nc2cc(-c3ccccc3)nc3c(Br)cnn23)cc1`: 237 to 239 °C; for `CC(C)(C)OC(=O)NCCNS(=O)(=O)c1ccc(Nc2cc(-c3ccccc3)nc3c(Br)cnn23)cc1`: 195 to 197 °C.
In turn, `O=S(=O)(NCc1ccccc1)c1ccc(Nc2cc(-c3ccccc3)nc3c(Br)cnn23)cc1` came in with a melting point of 216 to 218 °C.
The same measure, in the same setting: the same measure for `O=S(=O)(NCCCO)c1ccc(Nc2cc(-c3ccccc3)nc3c(Br)cnn23)cc1`: 165 to 168 °C.
The molecule `O=S(=O)(Nc1ccccc1)c1ccc(Nc2cc(-c3ccccc3)nc3c(Br)cnn23)cc1` came in with a melting point of 147 to 150 °C.
Regarding `CC(C)(C)OC(=O)N1CCC(NS(=O)(=O)c2ccc(Nc3cc(-c4ccccc4)nc4c(Br)cnn34)cc2)CC1`, the melting point was in the range of 127 to 129 °C.
Molecule `CS(=O)(=O)c1ccc(Nc2cc(-c3ccccc3F)nc3c(Cl)cnn23)cc1` came in with a melting point of 232 to 235 °C.
For `O=S(=O)(NC1CCCC1)c1ccc(Nc2cc(-c3ccccc3)nc3c(Br)cnn23)cc1`, the melting point was > 200 °C (dec.).
As for `CC(CO)NS(=O)(=O)c1ccc(Nc2cc(-c3ccccc3)nc3c(Br)cnn23)cc1` (stereo not shown), the melting point is > 200 °C (dec.).
As for `O=S(=O)(NCc1ccccn1)c1ccc(Nc2cc(-c3ccccc3)nc3c(Br)cnn23)cc1`, the melting point fell in the range of 101 to 103 °C.
With `O=S(=O)(NCc1cccnc1)c1ccc(Nc2cc(-c3ccccc3)nc3c(Br)cnn23)cc1`, the melting point was in the range of 110 to 114 °C.
The same measure, in the same setting: as for `O=S(=O)(O)CCNS(=O)(=O)c1ccc(Nc2cc(-c3ccccc3)nc3c(Br)cnn23)cc1`, the figure is 206 to 208 °C; as for `CS(=O)(=O)c1ccc(Nc2cc(-c3ccccc3F)nc3c(Br)cnn23)cc1`, 117 to 118 °C; as for `CC(CO)(CO)NS(=O)(=O)c1ccc(Nc2cc(-c3ccccc3)nc3c(Br)cnn23)cc1`, 98 to 100 °C.
In the case of `COC(=O)CNS(=O)(=O)c1ccc(Nc2cc(-c3ccccc3)nc3c(Br)cnn23)cc1`, the melting point lay within 182 to 184 °C.
Turning to `CN1CCN(S(=O)(=O)c2ccc(Nc3cc(-c4ccccc4)nc4c(Br)cnn34)cc2)CC1`, the melting point is 228 to 230 °C.
Regarding `O=S(=O)(N[C@@H](CO)Cc1ccccc1)c1ccc(Nc2cc(-c3ccccc3)nc3c(Br)cnn23)cc1`, the melting point lay within 108 to 110 °C.
Consider `O=S(=O)(N[C@H](CO)Cc1ccccc1)c1ccc(Nc2cc(-c3ccccc3)nc3c(Br)cnn23)cc1`, for which the melting point was 102 to 105 °C.
The same measure, in the same setting: the same measure for `CS(=O)(=O)c1ccc(Nc2cc(-c3cccc(C(F)(F)F)c3)nc3c(Br)cnn23)cc1`: 210 to 212 °C.
Take `O=S(=O)(NCCO)c1cccc(Nc2cc(-c3ccccc3)nc3c(Br)cnn23)c1`: the melting point is 87 to 90 °C.
`CC(O)CNS(=O)(=O)c1cccc(Nc2cc(-c3ccccc3)nc3c(Br)cnn23)c1` (stereo not shown) came in with a melting point of 115 to 120 °C.
On the same count and under the same terms, the same measure for `CCc1cnn2c(Nc3ccc(S(=O)(=O)NCCN(C)C)cc3)cc(-c3ccccc3)nc12`: 99 to 101 °C; for `CC(C)c1cc(Nc2ccc(S(C)(=O)=O)cc2)n2ncc(Br)c2n1`: 214 to 215 °C; for `CC(C)c1cc(Nc2ccccc2)n2ncc(Br)c2n1`: 166 to 168 °C.
The same measure, in the same setting: the same measure for `CC(C)(C)c1cc(Nc2ccccc2)n2ncc(Br)c2n1`: 144 °C.
As to `CS(=O)(=O)c1ccc(Nc2cc(-c3ccccc3Cl)nc3c(Br)cnn23)cc1` [Example 1], the negative logarithm of the IC50 (pIC50) (in general, −log10 of the IC50, conventionally taken in molar units) on Cyclin E/CDK2 was 6.40 and 5.85.
As to `Clc1ccccc1-c1cc(Nc2ccccc2)n2ncc(Br)c2n1` [Example 2], the pIC50 at Cyclin E/CDK2 was 6.29.
Molecule `Fc1ccccc1-c1cc(Nc2ccccc2)n2ncc(Cl)c2n1` [Example 3] returned a melting point of 112 to 116 °C. In addition, the pIC50 on Cyclin E/CDK2 was 7.38.
For the molecule `O=S(=O)(O)c1ccc(Nc2cc(-c3ccccc3)nc3c(Br)cnn23)cc1` [Example 22], the melting point was greater than 250 °C. The pIC50 on Cyclin E/CDK2 was 7.09.
For `CCNS(=O)(=O)c1ccc(Nc2cc(-c3ccccc3)nc3c(Br)cnn23)cc1` [Example 28], in that order: 101 to 104 °C and 7.10.
In turn, `O=S(=O)(NCCO)c1ccc(Nc2cc(-c3ccccc3)nc3c(Br)cnn23)cc1` [Example 30] yielded a melting point of 175 to 177 °C. For the same molecule, at Cyclin E/CDK2, the pIC50 was 7.54.
For the molecule `NS(=O)(=O)c1ccc(Nc2cc(-c3ccccc3)nc3c(Br)cnn23)cc1` [Example 31], the melting point fell in the range of 206 to 208 °C. At Cyclin E/CDK2, the negative-log IC50 (pIC50) was 7.35.
Turning to `CNS(=O)(=O)c1ccc(Nc2cc(-c3ccccc3)nc3c(Br)cnn23)cc1` [Example 32], the melting point was 231 to 233 °C. Moreover, at Cyclin E/CDK2, the pIC50 was 7.24.
`O=S(=O)(Nc1ccncc1)c1ccc(Nc2cc(-c3ccccc3)nc3c(Br)cnn23)cc1` [Example 38]: the melting point lay in the range of 192 to 195 °C. Further, the pIC50 at Cyclin E/CDK2 was 7.40.
Molecule `COCCNS(=O)(=O)c1ccc(Nc2cc(-c3ccccc3)nc3c(Br)cnn23)cc1` [Example 42] returned a melting point of 172 to 173 °C. In addition, the negative logarithm of the IC50 (pIC50) on Cyclin E/CDK2 is 7.15.
`CN(C)CCNS(=O)(=O)c1ccc(Nc2cc(-c3ccccc3)nc3c(Br)cnn23)cc1` [Example 43] showed a melting point of 165 to 167 °C. Also, the negative-log IC50 (pIC50) at Cyclin E/CDK2 was 7.47.
As to `O=S(=O)(c1ccc(Nc2cc(-c3ccccc3)nc3c(Br)cnn23)cc1)N(CCO)CCO` [Example 47], the melting point was in the range of 90 to 92 °C. Moreover, the pIC50 on Cyclin E/CDK2 is 7.47.
The molecule `CN(C)CC(C)(C)CNS(=O)(=O)c1ccc(Nc2cc(-c3ccccc3)nc3c(Br)cnn23)cc1` [Example 48] returned a melting point of 163 to 165 °C. In addition, at Cyclin E/CDK2, the negative-log IC50 (pIC50) was 7.60.
The molecule `O=S(=O)(NC(CO)CO)c1ccc(Nc2cc(-c3ccccc3)nc3c(Br)cnn23)cc1` [Example 50] registered a melting point of 122 to 124 °C. The negative logarithm of the IC50 (pIC50) on Cyclin E/CDK2 was 7.52.
`CN(C)CCCNS(=O)(=O)c1ccc(Nc2cc(-c3ccccc3)nc3c(Br)cnn23)cc1` [Example 53] returned a melting point of 78 to 80 °C. Besides, the pIC50 at Cyclin E/CDK2 was 7.96.
